Consider 67 molecules from the Kinase Knowledgebase extract (Sharma et al. 2016).

For orientation: IC50 means the concentration that inhibits the measured activity by half.

In the experiment the target is MAPK14 (human) (UniProt Q16539). Nature of the experiment: Inhibition of In vitro MAPK14 Kinase Activity.
MAPK14 (human), sequence (Q16539 whole entry, looked up): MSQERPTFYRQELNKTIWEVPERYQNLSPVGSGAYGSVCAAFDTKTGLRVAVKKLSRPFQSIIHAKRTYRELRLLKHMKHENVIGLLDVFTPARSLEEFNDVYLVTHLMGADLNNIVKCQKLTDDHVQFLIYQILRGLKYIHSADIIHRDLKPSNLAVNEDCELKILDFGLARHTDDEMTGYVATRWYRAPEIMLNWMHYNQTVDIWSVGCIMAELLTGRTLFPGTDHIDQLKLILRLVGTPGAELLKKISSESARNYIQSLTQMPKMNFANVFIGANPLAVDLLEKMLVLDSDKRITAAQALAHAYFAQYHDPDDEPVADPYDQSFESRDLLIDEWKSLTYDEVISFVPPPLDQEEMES
For `COc1c(OCCc2ccccc2)cnn(-c2c(Cl)cccc2Cl)c1=O`, the IC50 is 60 to 80 µM. `O=c1c(Br)c(OCCc2ccccc2)cnn1-c1c(Cl)cccc1Cl` returned an IC50 of 0.1 to 20 µM. The value for `O=c1c(Br)c(OCc2ccccc2CO)cnn1-c1c(Cl)cccc1Cl` was 0.1 to 20 µM. As for `Cc1c(OCCc2ccccc2)cnn(-c2c(Cl)cccc2Cl)c1=O`, the figure is 0.1 to 20 µM; as for `O=c1c(Br)c(OCCc2ccccn2)cnn1-c1c(Cl)cccc1Cl`, 0.1 to 20 µM; as for `O=c1c(Br)c(OCCc2ccccc2)cnn1Cc1ccccc1`, over 100 µM. As to `O=c1c(Br)c(OCc2ccc(F)cc2F)cnn1Cc1ccncc1`, the IC50 was 0.1 to 20 µM.

With `O=c1c(Br)c(OCc2ccc(F)cc2)cnn1-c1c(Cl)cccc1Cl`, the IC50 is 0.1 to 20 µM. The value for `O=c1c(Br)c(NCc2ccc(F)cc2)cnn1Cc1ccccc1` was 60 to 80 µM; that for `C[C@H](Nc1cnn(-c2c(Cl)cccc2Cl)c(=O)c1Br)[C@H](O)c1ccccc1` was over 100 µM. As for `O=c1c(Br)c(NC(CO)Cc2ccccc2)cnn1-c1c(Cl)cccc1Cl` (configuration not stated), the IC50 was over 100 µM. In turn, `O=c1c(Br)c(OCCCc2ccccc2)cnn1-c1c(Cl)cccc1Cl` showed an IC50 of over 100 µM. Molecule `O=c1c(Br)c(OCc2ccc(F)c(F)c2F)cnn1-c1c(Cl)cccc1Cl` came in with an IC50 of 0.1 to 20 µM. `Nc1ccccc1CNc1cnn(-c2c(Cl)cccc2Cl)c(=O)c1Br` came in with an IC50 of 0.1 to 20 µM. For `O=c1c(Br)c(NCC2CCCO2)cnn1-c1c(Cl)cccc1Cl` (configuration not stated), the IC50 was over 100 µM. `O=c1c(Br)c(NCc2ccccc2)cnn1-c1c(Cl)cccc1Cl` displayed an IC50 of 0.1 to 20 µM.

The molecule `O=c1c(Br)c(OCc2ccccc2)cnn1-c1c(Cl)cccc1Cl` yielded a 50% inhibitory concentration (IC50) of 0.1 to 20 µM. `CC(C)c1ccccc1Sc1cnn(Cc2ccccc2)c(=O)c1Br` came in with an IC50 of over 100 µM. Molecule `C[C@H](Nc1cnn(-c2c(Cl)cccc2Cl)c(=O)c1Br)c1ccccc1` had an IC50 of 0.1 to 20 µM. As for `C[C@@H](Nc1cnn(-c2c(Cl)cccc2Cl)c(=O)c1Br)[C@@H](O)c1ccccc1`, the figure is over 100 µM; as for `O=c1c(Br)c(NCc2ccc(F)cc2)cnn1-c1c(Cl)cccc1Cl`, 0.1 to 20 µM. Molecule `CN(C)CCn1ncc(OCCc2ccccc2)c(Br)c1=O` gave an IC50 of over 100 µM. The molecule `O=c1c(Br)c(OCc2ccc(F)cc2)cnn1Cc1ccccc1` showed an IC50 of over 100 µM. As for `O=c1c(Br)c(OCc2ccccc2CCl)cnn1-c1c(Cl)cccc1Cl`, the figure is 0.1 to 20 µM; as for `O=c1c(Br)c(N[C@@H]2C[C@H]2c2ccccc2)cnn1-c1c(Cl)cccc1Cl`, over 100 µM.

In turn, `O=c1c(Br)c(N2CCN(c3ccc(F)cc3)CC2)cnn1-c1c(Cl)cccc1Cl` registered an IC50 of over 100 µM.

For `O=c1c(Br)c(OCc2ccccc2)cnn1-c1ccccc1`, the IC50 is 20 to 40 µM. As to `O=c1c(-c2ccccc2)c(OCCc2ccccc2)cnn1-c1c(Cl)cccc1Cl`, the IC50 is over 100 µM.

For `O=c1c(Br)c(NCC2CCCO2)cnn1Cc1ccccc1` (configuration not stated), the IC50 is over 100 µM.

Turning to `O=C(O)CC(CNc1cnn(-c2c(Cl)cccc2Cl)c(=O)c1Br)c1ccc(Cl)cc1` (configuration not stated), the IC50 was in the range of 80 to 100 µM. In the case of `O=c1c(Br)c(OCCc2ccccc2)cnn1CCO`, the IC50 is over 100 µM.

`O=C(O)C(Nc1cnn(-c2c(Cl)cccc2Cl)c(=O)c1Br)c1ccccc1` (configuration not stated) returned an IC50 of over 100 µM.

`O=c1c(Br)c(OCc2ccc(F)cc2F)cnn1-c1c(Cl)c[n+]([O-])cc1Cl` registered an IC50 of 0.1 to 20 µM. `O=c1c(Br)c(OCc2ccccc2)cnn1Cc1ccccc1` gave an IC50 of over 100 µM.

Regarding `O=c1c(Br)c(OCc2ccc(F)cc2F)cnn1-c1c(Cl)cncc1Cl`, the IC50 was 0.1 to 20 µM. The value for `O=c1c(Br)c(NCCc2ccccc2)cnn1-c1c(Cl)cccc1Cl` was 0.1 to 20 µM; that for `COc1ccccc1COc1cnn(-c2c(Cl)cccc2Cl)c(=O)c1Br` was 0.1 to 20 µM.

`O=c1c(Br)c(OCc2ccc(F)c(F)c2)cnn1-c1c(Cl)cccc1Cl` gave an IC50 of 0.1 to 20 µM. The molecule `NN(Cc1ccccc1)c1cnn(-c2c(Cl)cccc2Cl)c(=O)c1Br` came in with an IC50 of 60 to 80 µM. Take `O=c1[nH]ncc(OCc2ccc(F)cc2F)c1Br`: the IC50 was over 100 µM.

With `CN(CCc1ccccc1)c1cnn(-c2c(Cl)cccc2Cl)c(=O)c1Br`, the IC50 was in the range of 20 to 40 µM. As to `O=c1c(Br)c(NCCc2ccccc2F)cnn1-c1c(Cl)cccc1Cl`, the 50% inhibitory concentration (IC50) is 0.1 to 20 µM. Turning to `CC(C)Cc1c(OCCc2ccccc2)cnn(-c2c(Cl)cccc2Cl)c1=O`, the half-inhibitory concentration (IC50) is over 100 µM. For the molecule `CN(C)CCn1ncc(OCc2ccc(F)cc2F)c(Br)c1=O`, the IC50 was over 100 µM. With `O=c1c(Br)c(OCCc2ccccc2)cnn1Cc1ccncc1`, the IC50 was over 100 µM.

`CS(=O)(=O)OCc1ccccc1COc1cnn(-c2c(Cl)cccc2Cl)c(=O)c1Br` had an IC50 of 0.1 to 20 µM.

Molecule `O=c1c(Br)c(OCc2ccc(F)cc2F)cnn1CCO` showed an IC50 of 20 to 40 µM.

`O=c1c(Br)c(N(CCO)CCc2ccccc2)cnn1-c1c(Cl)cccc1Cl` showed an IC50 of 40 to 60 µM. In turn, `O=c1[nH]ncc(OCCc2ccccc2)c1Br` yielded an IC50 of over 100 µM. `O=c1c(Br)c(Sc2ccc(F)cc2)cnn1-c1c(Cl)cccc1Cl`: the IC50 is over 100 µM.

`O=c1c(Br)c(N[C@H](CO)c2ccccc2)cnn1-c1c(Cl)cccc1Cl` gave an IC50 of 0.1 to 20 µM. The value for `O=c1c(Br)c(O)cnn1-c1c(Cl)cccc1Cl` was over 100 µM.

Turning to `O=c1c(Br)c(OCc2c(F)cc(F)cc2F)cnn1-c1c(Cl)cccc1Cl`, the IC50 is 0.1 to 20 µM. For `O=c1c(Br)c(NCc2cccc(Cl)c2)cnn1-c1c(Cl)cccc1Cl`, the IC50 is 20 to 40 µM.

`O=c1c(Br)c(Sc2ccc(F)cc2)cnn1Cc1ccccc1` returned an IC50 of over 100 µM.

The molecule `C[C@@H](Nc1cnn(-c2c(Cl)cccc2Cl)c(=O)c1Br)c1ccccc1` displayed an IC50 of 80 to 100 µM. Turning to `O=c1c(Br)c(Nc2ccccc2)cnn1-c1c(Cl)cccc1Cl`, the IC50 was over 100 µM. With `Cc1nc(Cn2ncc(OCc3ccc(F)cc3F)c(Br)c2=O)cs1`, the IC50 fell in the range of 0.1 to 20 µM. As for `O=c1c(Br)c(N[C@@H](CO)c2ccccc2)cnn1-c1c(Cl)cccc1Cl`, the figure is over 100 µM; as for `O=c1c(Br)c(NCC(CCO)c2ccc(Cl)cc2)cnn1-c1c(Cl)cccc1Cl` (configuration not stated), over 100 µM. For the molecule `O=c1c(Oc2ccccc2)c(OCCc2ccccc2)cnn1-c1c(Cl)cccc1Cl`, the IC50 is over 100 µM. On to `O=C(O)C(Nc1cnn(Cc2ccccc2)c(=O)c1Br)c1ccccc1` (configuration not stated), for which the IC50 was over 100 µM.

Molecule `CN(C)CCCn1ncc(OCc2ccc(F)cc2F)c(Br)c1=O` had an IC50 of over 100 µM. As for `O=c1cc(OCCc2ccccc2)cnn1-c1c(Cl)cccc1Cl`, the figure is 40 to 60 µM; as for `CN(C)CCCn1ncc(OCCc2ccccc2)c(Br)c1=O`, over 100 µM. Consider `O=c1c(Br)c(NCC(O)c2ccccc2)cnn1-c1c(Cl)cccc1Cl` (configuration not stated), for which the IC50 lay in the range of 0.1 to 20 µM. The molecule `O=c1c(Br)c(OCc2ccc(F)cc2F)cnn1-c1c(Cl)cccc1Cl` returned an IC50 of 0.1 to 20 µM.
